Laboratory results taken from paper PMC7956174, “Probing the Role of the Conserved Arg174 in Formate Dehydrogenase by Chemical Modification and Site-Directed Mutagenesis” (Molecules, 2021).
Read-outs that look alike come from different tables or passages of the source.

Key:
[1] = molecular target: T1, CbFDH (Candida boidinii formate dehydrogenase) ([Candida] boidinii, UniProt O13437); assay: steady-state inhibition kinetics; assay type: biochemical
T1 construct: gene FDH1; no tag told
T1 sequence (O13437 1-364): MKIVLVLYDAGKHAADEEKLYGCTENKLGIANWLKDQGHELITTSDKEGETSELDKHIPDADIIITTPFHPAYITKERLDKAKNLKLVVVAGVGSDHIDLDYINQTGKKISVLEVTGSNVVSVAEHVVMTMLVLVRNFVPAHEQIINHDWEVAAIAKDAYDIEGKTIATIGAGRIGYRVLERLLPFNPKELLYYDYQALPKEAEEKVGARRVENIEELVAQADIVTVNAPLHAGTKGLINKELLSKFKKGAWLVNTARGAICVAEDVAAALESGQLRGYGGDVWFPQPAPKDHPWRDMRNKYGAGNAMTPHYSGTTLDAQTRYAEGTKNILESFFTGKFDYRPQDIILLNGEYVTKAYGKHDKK
Description: steady-state inhibition kinetics on CbFDH (Candida boidinii formate dehydrogenase)

steady-state kinetics = substrate: O=CO; assay: steady-state kinetics; assay type: biochemical, [Candida] boidinii; conditions: 0.1 M potassium phosphate pH 7.5, 25 °C, co-substrate NAD+
Description: steady-state kinetics on CbFDH (Candida boidinii formate dehydrogenase)

Work on Nc1ncnc2c1ncn2[C@@H]1O[C@H](COP(=O)(O)O)[C@@H](O)[C@H]1O [AMP] yielded a Ki ([1]; read-out: Ki (mM) (AMP)) of 1.6 ± 0.1 mM.

NC(=O)C1=CN([C@@H]2O[C@H](COP(=O)(O)OP(=O)(O)OC[C@H]3O[C@@H](n4cnc5c(N)ncnc54)[C@H](O)[C@@H]3O)[C@@H](O)[C@H]2O)C=CC1 [NADH] gave a Ki ([1]; read-out: Ki (mM) (NADH)) of 0.03 ± 0.005 mM.

B1: CbFDH (Candida boidinii formate dehydrogenase) ([Candida] boidinii) (protein)
chain: MKIVLVLYDAGKHAADEEKLYGCTENKLGIANWLKDQGHELITTSDKEGETSELDKHIPDADIIITTPFHPAYITKERLDKAKNLKLVVVAGVGSDHIDLDYINQTGKKISVLEVTGSNVVSVAEHVVMTMLVLVRNFVPAHEQIINHDWEVAAIAKDAYDIEGKTIATIGAGRIGYRVLERLLPFNPKELLYYDYQALPKEAEEKVGARRVENIEELVAQADIVTVNAPLHAGTKGLINKELLSKFKKGAWLVNTARGAICVAEDVAAALESGQLRGYGGDVWFPQPAPKDHPWRDMRNKYGAGNAMTPHYSGTTLDAQTRYAEGTKNILESFFTGKFDYRPQDIILLNGEYVTKAYGKHDKK
notes: no tag told
With B1 the Km (steady-state kinetics) was 2400 ± 100 µM.
